Patent US12180193B2, “Accelerating fibrosarcoma protein degrading compounds and associated methods of use” (Arvinas Operations, Inc., priority 2020, dated 2024)

What was measured:
[1] = target: T1, BRAF G466V (Homo sapiens, UniProt P15056, G466V); test: Cellular assay of target protein degradation, T-Rex 293 cells stably transfected with HA-BRAF G466V (HA immunofluorescence, high content imaging); assay type: cell-based; details: T-Rex 293 HA-BRAF G466V; for DC50: half maximal degradation, read-out: BRaf G466V DC50; for Dmax: maximum degradation observed
T1 construct: expressed in transfected cells
T1 sequence (P15056 whole entry G466V): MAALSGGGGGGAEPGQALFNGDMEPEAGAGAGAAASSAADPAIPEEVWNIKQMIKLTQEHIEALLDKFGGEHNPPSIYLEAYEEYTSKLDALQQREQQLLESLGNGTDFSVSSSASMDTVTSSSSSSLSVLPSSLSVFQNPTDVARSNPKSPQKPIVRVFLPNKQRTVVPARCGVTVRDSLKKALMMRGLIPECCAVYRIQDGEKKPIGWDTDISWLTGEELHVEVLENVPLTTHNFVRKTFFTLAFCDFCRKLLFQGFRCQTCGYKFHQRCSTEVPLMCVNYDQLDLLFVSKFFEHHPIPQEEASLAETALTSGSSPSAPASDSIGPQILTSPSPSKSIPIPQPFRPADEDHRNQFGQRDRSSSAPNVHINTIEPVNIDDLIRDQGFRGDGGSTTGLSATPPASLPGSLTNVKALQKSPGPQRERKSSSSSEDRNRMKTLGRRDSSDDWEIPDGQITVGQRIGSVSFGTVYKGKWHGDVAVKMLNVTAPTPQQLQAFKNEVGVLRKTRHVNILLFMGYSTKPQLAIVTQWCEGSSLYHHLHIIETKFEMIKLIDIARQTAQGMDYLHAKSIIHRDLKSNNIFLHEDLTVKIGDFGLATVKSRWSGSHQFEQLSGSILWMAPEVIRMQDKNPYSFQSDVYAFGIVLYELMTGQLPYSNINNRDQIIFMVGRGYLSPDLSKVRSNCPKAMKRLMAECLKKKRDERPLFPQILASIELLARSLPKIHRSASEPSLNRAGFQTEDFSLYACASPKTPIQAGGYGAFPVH
Summary of the method: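 24 h compound, 30 nM–3 pM final, 0.1% DMSO, 37° C; HA-BRAF G466V induced with 0.75 ng/mL doxycycline. PFA fix, Triton perm, anti-HA + Alexa fluor secondary, Hoechst/phalloidin counterstain; imaging. DC50, Dmax (% of control).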

[2] = target: T2, BRAF V600E (Homo sapiens, UniProt P15056, V600E); test: Cellular assay of target protein degradation, T-Rex 293 cells stably transfected with HA-BRAF_V600E (HA immunofluorescence, high content imaging); assay type: cell-based; details: T-Rex 293 HA-BRAF V600E; for DC50: half maximal degradation, read-out: BRaf V600E DC50; for Dmax: maximum degradation observed
T2 construct: expressed in transfected cells
T2 sequence (P15056 whole entry V600E): as the sequence (P15056 whole entry G466V) above, with V466G, V600E counted along it
Summary of the method: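 24 h compound exposure, 1 μM–0.1 nM final, 0.1% DMSO, 37 °C; cells induced with 1 ng/mL doxycycline. PFA fix, Triton permeabilize, anti-HA overnight 4 °C, Hoechst/phalloidin counterstain. Output: DC50, Dmax as % control.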

Row | SMILES | DC50 [1] [nM] | Dmax [1] [%] | DC50 [2] [nM] | Dmax [2] [%]
1 | O=C1CC[C@@H](NC(=O)c2ccc(N3CCN(CC4CCN(c5ccc(-c6cnc7[nH]cc(C(=O)c8c(F)ccc(NS(=O)(=O)N9CC[C@@H](F)C9)c8F)c7c6)cc5)CC4)CC3)cc2F)C(=O)N1 [Compound 342, 4-(4-{[1-(4-{3-[2,6-difluoro-3-({[(3R)-3-fluoropyrrolidin-1-yl]sulfonyl}amino)benzoyl]-1H-pyrrolo[2,3-b]pyridin-5-yl}phenyl)piperidin-4-yl]methyl}piperazin-1-yl)-N-[(3R)-2,6-dioxopiperidin-3-yl]-2-fluorobenzamide] | 1 to 10 | 35 to 70 | 50 to 500 | < 35
2 | COc1cc(N2CC3(CN(CC4CCN(c5ccc(-c6cnc7[nH]cc(C(=O)c8c(F)ccc(NS(=O)(=O)N9CC[C@@H](F)C9)c8F)c7c6)cc5)CC4)C3)C2)ccc1C(=O)N[C@H]1CCC(=O)NC1=O [Compound 343, 4-(6-{[1-(4-{3-[2,6-difluoro-3-({[(3R)-3-fluoropyrrolidin-1-yl]sulfonyl}amino)benzoyl]-1H-pyrrolo[2,3-b]pyridin-5-yl}phenyl)piperidin-4-yl]methyl}-2,6-diazaspiro[3.3]heptan-2-yl)-N-[(3S)-2,6-dioxopiperidin-3-yl]-2-methoxybenzamide] | 1 to 10 | > 70 | 5 to 50 | 35 to 70
3 | COc1cc(N2CC3(CN(CC4CCN(c5ccc(-c6cnc7[nH]cc(C(=O)c8c(F)ccc(NS(=O)(=O)N9CC[C@@H](F)C9)c8F)c7c6)cc5)CC4)C3)C2)ccc1C(=O)N[C@@H]1CCC(=O)NC1=O [Compound 344, 4-(6-{[1-(4-{3-[2,6-difluoro-3-({[(3R)-3-fluoropyrroldiin-1-yl]sulfonyl}amino)benzoyl]-1H-pyrrolo[2,3-b]pyridin-5-yl}phenyl)piperidin-4-yl]methyl}-2,6-diazaspiro[3.3]heptan-2-yl)-N-[(3R)-2,6-dioxopiperidin-3-yl]-2-methoxybenzamide] | 10 to 30 | > 70 | 50 to 500 | < 35
4 | O=C1CC[C@H](NC(=O)c2ccc(N3CC4(CN(CC5CCN(c6ccc(-c7cnc8[nH]cc(C(=O)c9c(F)ccc(NS(=O)(=O)N%10CC[C@@H](F)C%10)c9F)c8c7)cc6)CC5)C4)C3)cn2)C(=O)N1 [Compound 345, 5-(6-{[1-(4-{3-[2,6-difluoro-3-({[(3R)-3-fluoropyrrolidin-1-yl]sulfonyl}amino)benzoyl]-1H-pyrrolo[2,3-b]pyridin-5-yl}phenyl)piperidin-4-yl]methyl}-2,6-diazaspiro[3.3]heptan-2-yl)-N-[(3S)-2,6-dioxopiperidin-3-yl]pyridine-2-carboxamide] | 1 to 10 | > 70 | 5 to 50 | 35 to 70
5 | O=C1CC[C@@H](NC(=O)c2ccc(N3CC4(CN(CC5CCN(c6ccc(-c7cnc8[nH]cc(C(=O)c9c(F)ccc(NS(=O)(=O)N%10CC[C@@H](F)C%10)c9F)c8c7)cc6)CC5)C4)C3)cn2)C(=O)N1 [Compound 346, 5-(6-{[1-(4-{3-[2,6-difluoro-3-({[(3R)-3-fluoropyrrolidin-1-yl]sulfonyl}amino)benzoyl]-1H-pyrrolo[2,3-b]pyridin-5-yl}phenyl)piperidin-4-yl]methyl}-2,6-diazaspiro[3.3]heptan-2-yl)-N-[(3R)-2,6-dioxopiperidin-3-yl]pyridine-2-carboxamide] | 1 to 10 | < 35 | 50 to 500 | < 35
6 | COc1cc(N2CC3(CN(CC4CCN(c5ccc(-c6cnc7[nH]cc(C(=O)c8c(F)ccc(NS(=O)(=O)N9CC[C@@H](F)C9)c8F)c7c6)cc5)CC4)C3)C2)cc(F)c1C(=O)N[C@H]1CCC(=O)NC1=O [Compound 347, 4-(6-{[1-(4-{3-[2,6-difluoro-3-({[(3R)-3-fluoropyrrolidin-1-yl]sulfonyl}amino)benzoyl]-1H-pyrrolo[2,3-b]pyridin-5-yl}phenyl)piperidin-4-yl]methyl}-2,6-diazaspiro[3.3]heptan-2-yl)-N-[(3S)-2,6-dioxopiperidin-3-yl]-2-fluoro-6-methoxybenzamide] | 1 to 10 | > 70 | 5 to 50 | 35 to 70
7 | COc1cc(N2CC3(CN(CC4CCN(c5ccc(-c6cnc7[nH]cc(C(=O)c8c(F)ccc(NS(=O)(=O)N9CC[C@@H](F)C9)c8F)c7c6)cc5)CC4)C3)C2)cc(F)c1C(=O)NC1CCC(=O)NC1=O (stereo partly drawn) [Compound 348, 4-(6-{[1-(4-{3-[2,6-difluoro-3-({[(3R)-3-fluoropyrrolidin-1-yl]sulfonyl}amino)benzoyl]-1H-pyrrolo[2,3-b]pyridin-5-yl}phenyl)piperidin-4-yl]methyl}-2,6-diazaspiro[3.3]heptan-2-yl)-N-(2,6-dioxopiperidin-3-yl)-2-fluoro-6-methoxybenzamide] | 1 to 10 | > 70 | 5 to 50 | 35 to 70
8 | O=C1CC[C@H](NC(=O)c2ccc(OCCCCN3CCN(c4ccc(-c5cnc6[nH]cc(C(=O)c7c(F)ccc(NS(=O)(=O)N8CC[C@@H](F)C8)c7F)c6c5)cc4)CC3)cc2F)C(=O)N1 [Compound 349, 4-{4-[4-(4-{3-[2,6-difluoro-3-({[(3R)-fluoropyrrolidin-1-yl]sulfonyl}amino)benzoyl]-1H-pyrrolo[2,3-b]pyridin-5-yl}phenyl)piperazin-1-yl]butoxy}-N-[(3S)-2,6-dioxopiperidin-3-yl]-2-fluorobenzamide] | > 30 | – | > 500 | > 70
9 | O=C1CCC(NC(=O)c2ccc(OCCCCN3CCN(c4ccc(-c5cnc6[nH]cc(C(=O)c7c(F)ccc(NS(=O)(=O)N8CC[C@@H](F)C8)c7F)c6c5)cc4)CC3)cc2F)C(=O)N1 (stereo partly drawn) [Compound 350, 4-{4-[4-(4-{3-[2,6-difluoro-3-({[(3R)-3-fluoropyrrolidin-1-yl]sulfonyl}amino)benzoyl]-1H-pyrrolo[2,3-b]pyridin-5-yl}phenyl)piperazin-1-yl]butoxy}-N-(2,6-dioxopiperidin-3-yl)-2-fluorobenzamide] | > 30 | – | 50 to 500 | < 35
10 | O=C1CC[C@H](NC(=O)c2ccc(N3CC4(CN(CC5CCN(c6ccc(-c7cnc8[nH]cc(C(=O)c9c(F)ccc(NS(=O)(=O)N%10CCC(F)(F)C%10)c9F)c8c7)cc6)CC5)C4)C3)cc2F)C(=O)N1 [Compound 351, 4-{6-[(1-{4-[3-(3-{[(3,3-difluoropyrrolidin-1-yl)sulfonyl]amino}-2,6-difluorobenzoyl)-1H-pyrrolo[2,3-b]pyridin-5-yl]phenyl}piperidin-4-yl)methyl}-2,6-diazaspiro[3.3]heptan-2-yl}-N-[(3S)-2,6-dioxopiperidin-3-yl]-2-fluorobenzamide] | 1 to 10 | 35 to 70 | 5 to 50 | 35 to 70
11 | COc1cc(N2CCC(CN3CC4(C3)CN(c3ccc(-c5cnc6[nH]cc(C(=O)c7c(F)ccc(NS(=O)(=O)N8CC[C@@H](F)C8)c7F)c6c5)cc3)C4)CC2)ccc1C(=O)N[C@H]1CCC(=O)NC1=O [Compound 352, 4-(4-{[6-(4-{3-[2,6-difluoro-3-({[(3R)-3-fluoropyrrolidin-1-yl]sulfonyl}amino)benzoyl]-1H-pyrrolo[2,3-b]pyridin-5-yl}phenyl)-2,6-diazaspiro[3.3]heptan-2-yl]methyl}piperidin-1-yl)-N-[(3S)-2,6-dioxopiperidin-3-yl]-2-methoxybenzamide] | 1 to 10 | > 70 | 5 to 50 | 35 to 70
